Source: PMC7998250, “Temperate Zone Plant Natural Products—A Novel Resource for Activity against Tropical Parasitic Diseases” (Pharmaceuticals, 2021)

Columns and labels:
[1] = system: L. mexicana axenic amastigotes; assay: Initial screen, L. mexicana axenic amastigotes, Alamar Blue; type: cell-based, Leishmania mexicana
Outline: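 Purified temperate plant natural products from a commercial library (1 mg/mL in DMSO) were tested against Leishmania mexicana axenic amastigotes at a final 2 μM. Parasites were seeded at 1 × 10^6 cells/mL in 96-well plates containing 200 μL culture and incubated 72 h. Growth was measured by Alamar Blue and normalised to DMSO controls (1% v/v), with triplicates over two biological replicates (n = 6).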

[2] = system: T. brucei bloodstream form; assay: Initial screen, T. brucei bloodstream form, Alamar Blue; type: cell-based, Trypanosoma brucei brucei
Outline: (§1)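 Bloodstream-form T. evansi Antat 3/3 and T. brucei Lister 427 were grown in HMI-11 with 10% FBS at 37 °C. Parasites were plated at 1×10^5 cells/mL with compound at 1 μM (T. evansi) or 2 μM (T. brucei) for 48 h, and growth was read by Alamar Blue relative to 1% DMSO controls (n = 6).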

[3] = system: T. evansi bloodstream form; assay: Initial screen, T. evansi bloodstream form, Alamar Blue; type: cell-based, Trypanosoma evansi; conditions: initial screen; compared to a normalised control with same concentration of DMSO solvent
Outline: as §1

[4] = system: P. falciparum Dd2Luc intraerythrocytic trophozoites; assay: Initial screen, intraerythrocytic P. falciparum, Malaria SYBR-Green I fluorescence assay; type: cell-based, Plasmodium falciparum; conditions: Plasmodium falciparum, 48 h, read-out: mean % growth, P. falciparum, initial screen; compared to a normalised control with same concentration of DMSO solvent
Outline: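 L. mexicana axenic amastigotes at 1 × 10^6 cells/mL exposed 72 h to compounds at 2 μM, growth read by Alamar Blue; P. falciparum trophozoites at 0.5% parasitaemia, 2% haematocrit, 48 h at 2 μM, SYBR-Green I read-out. Growth normalised to 1% DMSO; hits ≥50% growth reduction.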

[5] = system: L. mexicana axenic amastigotes; assay: Concentration-response EC50, L. mexicana axenic amastigotes (WT); type: cell-based, Leishmania mexicana; conditions: read-out: L. mexicana EC50; axenic amastigotes, 72 h
From the text: Initial hits from the parasite panel screen were taken forward in log concentration versus normalised response assays to estimate the half maximal effective concentration (EC50) in hit species as well as the half maximal cytotoxic concentrations (CC50) in the human hepatoma cell line HepG2 as a preliminary test for selectivity. Using CC50/EC50 to define the selectivity index (SI), the selectivity for each compound in a defined species compared to a human cell line was estimated and compared to the EC50 (Figure 3).
EC50 values were determined by serial two-fold dilution of each compound in 96 well plates. Culture conditions and viability assays were as stated for the initial screen, with some exceptions. L. mexicana and L. donovani axenic amastigotes were seeded at 2 × 10^6 cell/s mL, T. brucei and T. evansi were seeded at 2 × 10^5 cells/mL. For cytotoxicity studies, HepG2 cells were seeded at 1 × 10^5 cells/mL, incubated for 48 h and viability was assessed using the Alamar Blue assay [66, 67]. […] Normalised growth and viability data (compared to untreated controls) were plotted against Log10 concentration to estimate EC50 in GraphPad (Prism v6).

T. brucei = assay: Concentration-response EC50, T. brucei; type: cell-based, Trypanosoma brucei brucei; conditions: read-out: T. brucei EC50; bloodstream form, 48 h
HepG2 cells [6] = assay: Cytotoxicity CC50, HepG2, Alamar Blue; conditions: read-out: HepG2 CC50; 48 h
Outline: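 Human hepatoma cells seeded at 1 × 10^5 cells/mL with two-fold serial compound dilutions, incubated 48 h at 37 °C, 5% CO2 in DMEM/10% FBS. Viability read by Alamar Blue. CC50 estimated from viability normalised to untreated controls versus log concentration.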

[7] = system: activated monocyte cell line (THP-1); assay: Cytotoxicity CC50, differentiated THP-1, Alamar Blue; type: cell-based, human; conditions: differentiated THP-1, 48 h; read-out: THP1 CC50
From the text: The four lanosterone-like sterols derived from the Noble Fir Abies procera (700022, 700107, 700136) and the Grand Fir Abies grandis (700240) were the only initial compounds taken forward for L. mexicana due to their nanomolar activity and apparent low cytotoxicity (Figure 3a). […] Understanding the impact of the ring-opened lactone head group in this compound compared to the other three warrants further analysis in exploring their structure-activity relationships. These four sterols were also tested for growth inhibitory activity against L. donovani axenic amastigotes. […] As Leishmania spp. amastigotes typically reside with macrophages, further cytotoxicity assays with these sterols were performed against an activated monocyte cell line (THP-1) (Figure 4b). […]

HepG2 cells [8] = system: HepG2 cells; parameters: method as in PMID 31617221; conditions: cited from earlier work
P. falciparum Dd2Luc = system: P. falciparum Dd2Luc; parameters: method as in PMID 27999014; conditions: control compounds; cited from earlier work
T. b. rhodesiense = system: T. b. rhodesiense; parameters: method as in PMID 29896963; conditions: cited from earlier work
[9] = system: P. falciparum NF54 strain; parameters: method as in PMID 29896963; conditions: drug sensitive NF54 strain; cited from earlier work
[10] = initial screen, compared to a normalised control with same concentration of DMSO solvent

Question: Which “initial hit against L. mexicana” value ([1]; 2 μM, growth inhibited by ≥80%) does the source give for `C=C1C(=O)OC2CC(C)C3C=CC(=O)C3(C)C(OC(C)=O)C12` (centres unmarked) [Compound 701154] here?
Answer: initial hits

Question: And the inhibition of growth at 2 µM ([1]; Leishmania mexicana, read-out: initial hit L.m)?
Answer: > 80%

Question: What about the “mean % growth, L. mexicana” value [1, 10] of the same molecule?
Answer: -0.64%

Question: And the “initial hit against T. brucei” value ([2]; 2 μM, growth reduced by ≥50%)?
Answer: initial hits

Question: And the inhibition of growth at 2 µM ([2]; Trypanosoma brucei, read-out: initial hit T.b)?
Answer: > 50%

Question: What about the “mean % growth, T. b. brucei” value [2, 10] of the same molecule?
Answer: 14.7%

Question: What about the “mean % growth, T. evansi” value [3] of the same molecule?
Answer: 79.8%

Question: What about the activity at 2 µM [4] of the same molecule?
Answer: 66.5%

Question: And the EC50 [5]?
Answer: 0.95 µM

Question: And the EC50 (T. brucei)?
Answer: 1.6 µM

Question: What about the CC50 (HepG2 cells [6]) of the same molecule?
Answer: 4.2 µM

Question: What about the CC50 [7] of the same molecule?
Answer: 1.5 µM

Question: Which “antiproliferative activity against HepG2 cells” value (HepG2 cells [8]) does the source give for `COc1cc(C[C@H]2C(=O)OC[C@@H]2Cc2ccc(OC)c(OC)c2)ccc1O` [arctigenin] here?
Answer: potent antiproliferative activity

Question: For `O=C1C(O)=C([C@H]2CC[C@H](c3ccc(Cl)cc3)CC2)C(=O)c2ccccc21` [atovaquone], which “rate of kill of control antimalarials” value (P. falciparum Dd2Luc) is on record?
Answer: slow killing compound with 48 h lag in action

Question: Which “rate of kill of control antimalarials” value (P. falciparum Dd2Luc) does the source give for `C[C@H]1[C@@H](O)O[C@@H]2O[C@@]3(C)CC[C@H]4[C@H](C)CC[C@@H]1[C@@]24OO3` [dihydroartemisinin] here?
Answer: rapid initial rate of kill with no lag in action

Question: Which results are given for `CC(C)c1cc(CC[C@@H]2C(=O)CCCC2(C)C)c(O)cc1O` [leriifoliol]?
Answer: activity against T. b. rhodesiense (T. b. rhodesiense): micromolar activity; activity against P. falciparum [9]: submicromolar activity
